Data published in patent US12180192B2, “Modulators of THR-β and methods of use thereof” (ALIGOS THERAPEUTICS, INC., priority 2019, dated 2024).

What was measured:
[1] = system: CPT1A gene expression in Huh-7 cells; assay: Huh-7 differential gene expression, CPT1A RT-qPCR (Assay 3); format: cell-based; conditions: Homo sapiens, Huh-7, 24 h, Table 6, Huh-7 cells, CPT1A, 24 hr treatment; for EC50: read-out: Activity category Assay 3 EC50; for Emax: read-out: Activity category Assay 3 Emax
Procedure, shortened: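 Huh-7 cells in DMEM with 10% resin-stripped (TH-depleted) FBS were treated 24 hr with compounds at 0.1% DMSO, in biological duplicates. CPT1A mRNA was measured by TaqMan RT-qPCR against ACTB and TFG and quantified by 2-ΔΔCt. EC50 and Emax came from four-parameter logistic fits with no top constraint.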

[2] = target: T1, human thyroid receptor alpha ligand-binding domain (LBD) (Homo sapiens, UniProt P10827); assay: TR-FRET thyroid receptor alpha coactivator assay (THR biochemical assay, Assay 1); conditions: for EC50: Table 4, THR-alpha, read-out: Activity category Assay 1 (EC50, THR-alpha agonist activity); for Emax: Table 5, THRα, read-out: Activity category Assay 1 THRα (Emax)
T1 construct: purchased Invitrogen
Procedure, shortened: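 Agonist-driven coactivator recruitment measured by TR-FRET: terbium anti-GST antibody (2 nM) bound to GST-LBD of TRβ or TRα (1 nM final, stated for β), with fluorescein SRC2-2 peptide at 200 nM. Compounds at 1% DMSO. Read after 1 h, room temperature, protected from light.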

THR beta = target: T2, THR beta (Homo sapiens, UniProt P10828); assay: HEK293T THR beta/RXR luciferase reporter assay (Assay 2); format: cell-based; conditions: for Emax: HEK-293T, Table 5, Assay 2, THRβ, read-out: Activity category Assay 2 THRβ (Emax); for EC50: THR-beta, HEK293T reporter assay, read-out: Activity category Assay 2 (EC50, THR-beta agonist)
T2 construct: expressed in transfected cells; host or cells: HEK293T (ATCC CRL-3216)
T2 sequence (P10828 1-461): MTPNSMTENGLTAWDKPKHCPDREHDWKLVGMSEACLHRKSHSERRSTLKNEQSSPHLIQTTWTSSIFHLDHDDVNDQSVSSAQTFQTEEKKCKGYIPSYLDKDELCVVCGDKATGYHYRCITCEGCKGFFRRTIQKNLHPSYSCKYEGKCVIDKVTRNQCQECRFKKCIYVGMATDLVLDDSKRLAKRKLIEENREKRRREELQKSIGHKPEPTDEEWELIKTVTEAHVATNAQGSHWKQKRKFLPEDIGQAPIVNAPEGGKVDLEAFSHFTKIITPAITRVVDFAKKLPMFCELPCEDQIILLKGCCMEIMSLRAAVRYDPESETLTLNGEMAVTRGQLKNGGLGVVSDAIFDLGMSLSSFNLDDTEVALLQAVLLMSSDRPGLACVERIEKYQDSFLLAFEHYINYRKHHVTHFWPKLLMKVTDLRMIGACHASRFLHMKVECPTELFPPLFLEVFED
T2 sequence (P19793 1-462 partner): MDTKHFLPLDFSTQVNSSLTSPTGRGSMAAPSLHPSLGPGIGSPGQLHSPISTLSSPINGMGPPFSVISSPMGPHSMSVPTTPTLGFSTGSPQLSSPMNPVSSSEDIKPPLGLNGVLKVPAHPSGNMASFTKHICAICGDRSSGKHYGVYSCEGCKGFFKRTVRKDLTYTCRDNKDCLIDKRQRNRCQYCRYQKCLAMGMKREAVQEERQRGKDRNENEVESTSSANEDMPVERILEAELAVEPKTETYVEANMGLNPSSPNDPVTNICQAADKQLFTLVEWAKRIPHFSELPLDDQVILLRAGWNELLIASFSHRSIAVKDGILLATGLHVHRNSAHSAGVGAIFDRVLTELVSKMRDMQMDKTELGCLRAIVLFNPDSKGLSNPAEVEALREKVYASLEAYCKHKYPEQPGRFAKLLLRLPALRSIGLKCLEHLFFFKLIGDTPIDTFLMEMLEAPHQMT
Procedure, shortened: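 Compounds tested as ten-point five-fold dilution series for 18-24 h on transiently transfected HEK293T cells carrying TRE-driven luciferase plus RXR and either THR alpha or beta expression plasmids. Read-out by One-Glo luminescence, expressed as percent agonism relative to negative and positive controls.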

T1 sequence (P10827 163-410 isoform P10827-2 limits assumed, other chains not shown): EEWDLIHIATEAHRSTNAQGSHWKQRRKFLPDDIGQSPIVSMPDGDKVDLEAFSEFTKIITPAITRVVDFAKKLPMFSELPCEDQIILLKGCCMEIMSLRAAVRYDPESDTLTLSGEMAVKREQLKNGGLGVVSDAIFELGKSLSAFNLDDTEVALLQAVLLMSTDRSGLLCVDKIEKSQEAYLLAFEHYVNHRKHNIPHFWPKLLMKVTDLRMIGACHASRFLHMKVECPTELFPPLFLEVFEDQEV

EC50 [1] [nM] | EC50 [2] [nM] | Emax [2] [%] | Emax (THR beta) [%] | EC50 (THR beta) [nM] | Compound | Emax [1] [%]
> 100 | 250 to 1000 | < 50 | 50 to 75 | 50 to 250 | Nc1nn(-c2cc(Cl)c(Oc3cc(C4Cc5ccccc54)c(=O)[nH]n3)c(Cl)c2)c(=O)[nH]c1=O (stereo not drawn) [Compound 158] | < 50
> 100 | > 25000 | < 50 | < 50 | 250 to 1000 | Nc1nn(-c2cc(Cl)c(Oc3n[nH]c(=O)cc3-c3ccc4c(c3)CCCO4)c(Cl)c2)c(=O)[nH]c1=O [Compound 115] | > 75
100 to 1000 | < 50 | 50 to 75 | 50 to 75 | 1000 to 10000 | Cc1cc(-n2nc(C#N)c(=O)[nH]c2=O)cc(C)c1Cc1ccc2c(c1)C1(CC1)C(=O)N2 [Compound 148, 2-(3,5-dimethyl-4-((2′-oxospiro[cyclopropane-1,3′-indolin]-5′-yl)methyl)phenyl)-3,5-dioxo-2,3,4,5-tetrahydro-1,2,4-triazine-6-carbonitrile] | > 75
> 100 | 50 to 250 | < 50 | 50 to 75 | > 10000 | Cc1cc(-n2nc(C#N)c(=O)[nH]c2=O)cc(C)c1Cc1ccc2[nH]c(=O)cc(C(C)C)c2c1 [Compound 90, 2-(4-((4-Isopropyl-2-oxo-1,2-dihydroquinolin-6-yl)methyl)-3,5-dimethylphenyl)-3,5-dioxo-2,3,4,5-tetrahydro-1,2,4-triazine-6-carbonitrile] | 50 to 75

Continued, molecule first:

Compound | EC50 [1] [nM] | EC50 [2] [nM] | Emax [2] [%] | Emax (THR beta) [%] | EC50 (THR beta) [nM] | Emax [1] [%]
Cc1cc(-n2ncc(=O)[nH]c2=O)cc(C)c1Cc1ccc2[nH]cc(C(C)C)c2n1 [Compound 54, 2-[4-[(3-isopropyl-1H-pyrrolo[3,2-b]pyridine-5-yl)methyl]-3,5-dimethyl-phenyl]-1,2,4-triazine-3,5-dione] | < 100 | < 50 | < 50 | > 75 | < 50 | > 75
Cc1cccc(-c2cc(Oc3c(Cl)cc(-n4nc(N)c(=O)[nH]c4=O)cc3Cl)n[nH]c2=O)c1 [Compound 70, 6-Amino-2-(3,5-dichloro-4-((6-oxo-5-(m-tolyl)-1,6-dihydropyridazin-3-yl)oxy)phenyl)-1,2,4-triazine-3,5(2H,4H)-dione] | < 100 | 50 to 250 | < 50 | > 75 | < 50 | 50 to 75
Cc1cc(-n2nc(N)c(=O)[nH]c2=O)cc(C)c1Cc1ccc2[nH]cc(C(C)C)c2n1 [Compound 55, 6-amino-2-[4-[(3-isopropyl-1H-pyrrolo[3,2-b]pyridin-5-yl)methyl]-3,5-dimethyl-phenyl]-1,2,4-triazine-3,5-dione] | < 100 | < 50 | 50 to 75 | > 75 | < 50 | > 75
